Results reported in paper PMC12735718, “Novel Adamantane–Sclareol Hybrids Exploit ROS Vulnerability to Overcome Multidrug-Resistance in Glioblastoma Cells” (Molecules, 2025).

Key:
[1] = test system: TrxR (SH-SY5Y cell lysate); assay: Colorimetric detection of cell lysate TrxR activity (DTNB); format: biochemical, human; conditions: positive control, 20 µM, DTNB absorbance over 20 min
From the text: We further analyzed the potential of adamantane–sclareol hybrids to inhibit TrxR enzyme activity using a colorimetric assay for the detection of TrxR activity in cell lysates. This kinetic assay is based on the ability of TrxR to reduce its substrate 5,5ʹ-dithiobis(2-nitrobenzoic acid) (DTNB) to the yellow product 5-thio-2-nitrobenzoic acid (TNB) in the presence of NADPH. The absorbance of the produced TNB is considered equivalent to the enzymic activity of TrxR. In the kinetic assay, the absorbance of DTNB was measured over 20 min, resulting in a curve showing the dependence of absorbance on time.
TrxR enzyme activity in cell lysate was determined by the reduction of the TrxR substrate DTNB to the yellow product TNB in the presence of NADPH (Acros Organics, Thermo Fisher Scientific, Waltham, MA, USA). Lysate from human neuroblastoma SH-SY5Y cells was used for the TrxR assay. SH-SY5Y cells were grown to 80% confluence, washed twice with PBS, and detached using Hanks-based enzyme-free dissociation solution (Millipore, Billeri-ca, MA, USA). Collected cells were centrifuged at 2000 rpm for 3 min and rinsed in PBS buffer. After additional centrifugation, cells were lysed on ice using Lysis Buffer (50 mM Tris, 150 mM NaCl, 1 mM EDTA, 1% NP40, 0.1% SDS, 0.5% Na-deoxycholate, pH 7.8) containing protease inhibitor mix G (SERVA Electrophoresis GmbH, Heidelberg, Germany) and phosphatase inhibitor cocktail 3 (Sigma-Aldrich, Darmstadt, Germany). The cell lysates were centrifuged at 16,000× g for 15 min at 4 °C. The protein concentrations of the supernatants were determined using a Pierce^TM BCA protein assay kit (Thermo Fisher Scientific, Waltham, MA, USA). The reactions were run in 96-well plates, in a final volume of 100 μL, in 50 mM potassium phosphate buffer (pH 7.0) containing 50 μg of cell lysate proteins, 1 mM EDTA, 50 mM KCl, 0.2 mg/mL BSA, and 0.25 mM NADPH. […] Enzyme kinetics were monitored on an automated microplate reader (MultiskanSky, Thermo Fisher Scientific, Waltham, MA, USA) by measuring the increase in absorbance at 412 nm for 20 min. […]

[2] = test system: H2O2 and peroxynitrite anion levels in U87-TxR cells; assay: ROS detection by DHR, U87-TxR; format: cell-based, human; conditions: 10 µM
Protocol: The levels of ROS were measured in U87 and U87-TxR cells by flow cytometry. The production of superoxide anions was detected using DHE fluorescence dye, while production of H2O2 and peroxynitrite anions was detected using DHR fluorescence dye. Cells were seeded in 6-well plates (150,000 cell/well) and incubated overnight. The cells were then treated with compounds 2 or 5 (4 μM) for 24 h and 48 h. CDDP (10 μM) was used as a positive control. After the treatment period, the cells were stained with DHE or DHR for 30 min in the dark. Following incubation, cells were harvested with trypsinization and washed twice in cold phosphate buffer solution (PBS). Fluorescence was measured on a CytoFlex flow cytometer (Beckman Coulter, Indianapolis, IN, USA). Green fluorescence from the oxidized DHR dye was detected at 525 nm, while the red fluorescence from ethidium derived from DHE was detected at 585 nm. At least 10,000 events were assayed for each sample. The results were analyzed by CytExpert 2.4.0.28 software (Beckman Coulter, Indianapolis, IN, USA).

U87 cells = assay: MTT cell viability assay, U87; format: cell-based; conditions: Homo sapiens, U-87 MG, 72 h treatment
Protocol: (§1) Cell viability was measured using the colorimetric MTT assay based on the reduction of MTT into formazan dye. Cell lines were seeded into 96-well cell culture plates (4000 cells/well) in appropriate medium. After overnight incubation, cells were treated with increasing concentrations of 1, 2, 3, 4, 5, and 6 (0.5, 1, 2, 4, and 8 µM). After 72 h treatment, MTT solution (4 mg/mL) was added and plates were incubated at 37 °C with 5% CO2 for 3 h. After incubation, formazan crystals were dissolved using 100 µL DMSO, resulting in a purple color. The absorbance was measured at 570 nm with a reference wavelength of 690 nm using an automated microplate reader (MultiskanSky, Thermo Scientific, USA). The IC50 values were determined by non-linear regression analysis in GraphPad Prism 8.0.2. software (GraphPad Software, Boston, MA, USA).

U87-TxR cells [3] = assay: MTT cell viability assay, U87-TxR; format: cell-based, human; conditions: for IC50: Homo sapiens, U87-TxR, 72 h treatment, MTT, MDR cell line; for Relative Resistance Factor: ratio of IC50 values U87-TxR / U87
Protocol: as §1

SVG p12 cells = assay: MTT cell viability assay, SVG p12; format: cell-based, human; conditions: for IC50: Homo sapiens, SVGp12, 72 h treatment, MTT, normal glial cell line; for Selectivity Index: IC50 SVG p12 vs average IC50 in A-172, U87 and U87-TxR
Protocol: as §1

A-172 cells = assay: MTT cell viability assay, A-172; format: cell-based; conditions: Homo sapiens, 72 h treatment
Protocol: as §1

U87-TxR cells [4] = assay: Cell death detection, AV/PI staining, U87-TxR; format: cell-based, human; conditions: 48 h; for cell death effect in MDR U87-TxR cells vs sensitive U87 cells: 4 µM, AV/PI; for percentage of early apoptotic cells vs untreated: 2 µM and 4 µM, particularly at 4 µM
Protocol: To evaluate the extent of cell death upon treatment with adamantane–sclareol hybrids, apoptotic, necrotic, and viable cell populations were assessed using dual staining with AV/PI. U87 and U87-TxR cells were seeded in 6-well plates at a density of 150,000 cells per well and incubated overnight. Subsequently, cells were treated with 2 and 5 (2 µM and 4 µM) for 48 h. At the end of the treatment period, cells were collected (both adherent and floating), washed, and incubated with AV/PI in binding buffer. Samples were analyzed using a CytoFLEX flow cytometer (Beckman Coulter, Indianapolis, IN, USA), with fluorescence signals detected at 525 nm (AV) and 585 nm (PI). At least 10,000 events were recorded per each condition. The percentages of viable (AV^− PI^−), early apoptotic (AV^+ PI^−), late apoptotic (AV^+ PI^+), and necrotic (AV^− PI^+) cells were calculated using CytExpert 2.4.0.28 software (Beckman Coulter, Indianapolis, IN, USA).

U87-TxR cells [5] = assay: Combination with PTX, MTT assay; format: cell-based, human; conditions: Homo sapiens, U87-TxR; PTX alone, 72 h
Protocol: as §1
The combined effects of 2 and 5 with PTX were studied in U87-TxR cells by MTT assay as previously described. In simultaneous treatments that lasted 72 h, three concentrations of 2 and 5 (0.5, 1, and 2 µM) were combined with three concentrations of PTX (0.1 μM, 0.2 μM, and 0.5 μM). Drug combination effects were evaluated using the Chou–Talalay method, which calculates the combination index (CI) value for the degree of interaction between the drugs. This method allows quantitative assessment of synergism (CI < 1), additivity (CI close to 1), or antagonism (CI > 1) across a range of dose–effect relationships. Calcusyn® version 1.1 software was used for data analysis (Biosoft, Cambridge UK). Three data points were used for each single drug in each designed experiment. The non-constant ratio combination was chosen to assess the effect of both drugs in combination. The results are presented in a fraction-affected CI graph.

[6] = test system: mitochondrial membrane potential in U87 and U87-TxR cells; assay: TMRE mitochondrial membrane potential; format: cell-based, human; conditions: 10 µM, added 30 min before staining
Protocol: The cell-permeable fluorescent dye TMRE was used to evaluate mitochondrial membrane potential. TMRE selectively accumulates in active mitochondria with intact membrane potential. […] U87 and U87-TxR cells were seeded in 6-well plates at a density of 150,000 cells per well. After 24 h, cells were treated with 2 and 5 (4 µM) and incubated for an additional 24 h. After treatment, cells were trypsinized, resuspended in complete medium containing 500 nM TMRE, and incubated for 30 min at 37 °C in the dark. CCCP (10 µM) was used as a positive control for mitochondrial depolarization and added 30 min before staining. For each sample, at least 10,000 events were collected. TMRE was detected at […]. The results were calculated using CytExpert 2.4.0.28 software (Beckman Coulter, Indianapolis, IN, USA).

Compound: O=C(O)CC([S-])C(=O)O.[Au+] (stereo not drawn) [ATM, aurothiomalate, reference compound]
- TrxR enzyme activity [1]: inhibited TrxR activity

Compound: [NH2][Pt]([NH2])([Cl])[Cl] [CDDP, Cisplatin, reference compound]
- positive control effect on ROS, U87-TxR vs U87 [2]: more potent effects in MDR U87-TxR cells

Compound: CC1(C)CCC[C@]2(C)[C@@H](CC[C@@](C)(O)/C=C/c3ccc(CNCCCCCCNCC45CC6CC(CC(C6)C4)C5)s3)[C@](C)(O)CC[C@@H]12 [Compound 1]
- IC50 (U87 cells): 2400 ± 61 nM
- IC50 (U87-TxR cells [3]): 2080 ± 37 nM
- Relative Resistance Factor (U87-TxR cells [3]): 0.869
- IC50 (SVG p12 cells): 5330 ± 132 nM
- Selectivity Index (SVG p12 cells): 2.300 ^S
- IC50 (A-172 cells): 2470 ± 36 nM
- cell death effect in MDR U87-TxR cells vs sensitive U87 cells (U87-TxR cells [4]): significantly better effects in MDR U87-TxR cells

Compound: CC1(C)CCC[C@]2(C)[C@@H](CC[C@@](C)(O)/C=C/c3ccc(CNCCCCCCNCCC45CC6CC(CC(C6)C4)C5)s3)[C@](C)(O)CC[C@@H]12 [Compound 3]
- IC50 (U87 cells): 2200 ± 52 nM
- IC50 (U87-TxR cells [3]): 2310 ± 52 nM
- Relative Resistance Factor (U87-TxR cells [3]): 1.049
- IC50 (SVG p12 cells): 9290 ± 169 nM
- Selectivity Index (SVG p12 cells): 3.541 ^S
- IC50 (A-172 cells): 3360 ± 57 nM
- cell death effect in MDR U87-TxR cells vs sensitive U87 cells (U87-TxR cells [4]): significantly better effects in MDR U87-TxR cells
- percentage of early apoptotic cells vs untreated (U87-TxR cells [4]): significant increase

Compound: CC1(C)CCC[C@]2(C)[C@@H](CC[C@@](C)(O)/C=C/c3ccc(CNCCCCCCNCC45CC6CC(CC(C6)C4)C5)o3)[C@](C)(O)CC[C@@H]12 [Compound 4]
- IC50 (U87 cells): 1250 ± 36 nM
- IC50 (U87-TxR cells [3]): 1460 ± 27 nM
- Relative Resistance Factor (U87-TxR cells [3]): 1.160
- IC50 (SVG p12 cells): 918 ± 22 nM
- Selectivity Index (SVG p12 cells): 0.686
- IC50 (A-172 cells): 1380 ± 18 nM
- cell death effect in MDR U87-TxR cells vs sensitive U87 cells (U87-TxR cells [4]): significantly better effects in MDR U87-TxR cells
- percentage of early apoptotic cells vs untreated (U87-TxR cells [4]): significant increase
- early apoptotic population (AV+ PI−) (U87-TxR cells [4]; untreated cells 4.17%, Figure S3): 26.84%

Compound: CC1(C)CCC[C@]2(C)[C@@H](CC[C@@](C)(O)/C=C/c3ccc(CNCCCCCCNCCC45CC6CC(CC(C6)C4)C5)o3)[C@](C)(O)CC[C@@H]12 [Compound 6]
- IC50 (U87 cells): 2470 ± 66 nM
- IC50 (U87-TxR cells [3]): 1910 ± 46 nM
- IC50 (SVG p12 cells): 1160 ± 27 nM
- Selectivity Index (SVG p12 cells): 0.547
- IC50 (A-172 cells): 2000 ± 26 nM

Compound: CC(=O)O[C@H]1C(=O)[C@@]2(C)[C@H]([C@H](OC(=O)c3ccccc3)[C@]3(O)C[C@H](OC(=O)[C@H](O)[C@@H](NC(=O)c4ccccc4)c4ccccc4)C(C)=C1C3(C)C)[C@]1(OC(C)=O)CO[C@@H]1C[C@@H]2O [PTX, paclitaxel, reference compound]
- IC50 (U87-TxR cells [5]): 688 ± 22 nM

Compound: Carbonyl cyanide m-chlorophenyl hydrazine [CCCP, reference compound]
- positive control effect on mitochondrial membrane potential, U87-TxR vs U87 [6]: more potent effects in MDR U87-TxR cells
